This note sets out measurements from patent publication US4076814A, “Preventive and curative compositions against mycoplasmosis” (Sankyo Company Limited, priority 1975, dated 1978).

Values after ≈ are worked out from the molar mass of the structure shown. Counter-ions that a name gives are not always drawn.

The subject of experiment [1] is Mycoplasma gallisepticum. Put plainly: Antimicrobial test, conventional agar plate dilution method, Mycoplasma gallisepticum. The class given is cell-based. Conditions: for MIC: Mycoplasmoides gallisepticum, read-out: Minimum Inhibitory Concentration, Mycoplasma gallisepticum. The text has this:
(§1) ANTIMICROBIAL TEST AGAINST THREE STRAINS OF MYCOPLASMA
(§2) The test was effected by a conventional agar plate dilution method using the indicated strains of mycoplasma. The dithiocarbamic acid derivatives as shown below with Compound Nos. were employed in the test.

Experiment [2] relates to Mycoplasma pulmonis. Put plainly: Antimicrobial test, conventional agar plate dilution method, Mycoplasma pulmonis. The class given is cell-based. The following applies: for MIC: Mycoplasma, read-out: Minimum Inhibitory Concentration, Mycoplasma pulmonis.
Source text: as §1, §2

The subject of experiment [3] is Mycoplasma hyorhinis. Put plainly: Antimicrobial test, conventional agar plate dilution method, Mycoplasma hyorhinis. The format is cell-based. The following applies: for MIC: Mycoplasma, read-out: Minimum Inhibitory Concentration, Mycoplasma hyorhinis.
Source text: as §1, §2

In experiment [4] the test system is MRL-4 strain of mycoplasma pulmonis. Put plainly: Curative effect in mice infected with MRL-4 strain of mycoplasma pulmonis by oral administration in feed. The format is in vivo. The following applies: 10 days, after one month. The method, then:
Each of the dithiocarbamic acid derivatives as indicated below with Compound No. was added to a feed and administered orally to mice infected artificially with MRL-4 strain of mycoplasma pulmonis. The effectiveness of the treatment was evaluated. Six groups, each group consisting of ten female mice which were negative in the test for mycoplasmosis, were used. After MRL-4 strain of mycoplasma pulmonis was cultured in PPLO agar medium, the colonies of the surface of the medium were diluted with a phosphate buffer solution to prepare a solution containing about 10^9 /ml of mycoplasma. 0.1 ml of the microbe-containing solution was injected intravenously to the tail of each mouse. For consecutive 10 days from the next day of the injection, the mice were fed with a powdery feed containing the active compound at respective concentrations of 0.04, 0.02, 0.01 and 0.005%, respectively. During the experiment period, all the procedures were conducted in a vinyl isolater.
After one month from the starting of the experiment, the presence of arthritis was visually investigated and at the same time the presence of pneumonia was also investigated after dissection. Recovery tests of mycoplasma and general bacteria were conducted using the joints and lungs of host subjects as the testing materials.

`CCN(CC)C(=S)SCCC(C)=O` [compound 79, 2-Acetylethyl diethyldithiocarbamate]: the MIC in experiment [1], in experiment [2] and in experiment [3] was 0.012 µg/mL (≈ 0.0547 µM) throughout. The Attack rate arthritis in experiment [4] (0.005% in feed) is listed as 2/10; in experiment [4] (0.01% in feed), 0/10; in experiment [4] (0.02% in feed), 0/10; in experiment [4] (0.04% in feed), 0/10. The Attack rate pneumonia in experiment [4] (0.005% in feed), in experiment [4] (0.01% in feed), in experiment [4] (0.02% in feed) and in experiment [4] (0.04% in feed) was 0/10 throughout. Moreover, the “Recovery of mycoplasma joint” value in experiment [4] (0.005% in feed) is 2/10; in experiment [4] (0.01% in feed), 0/10; in experiment [4] (0.02% in feed), 0/10; in experiment [4] (0.04% in feed) it was 0/10. The “Recovery of mycoplasma lung” value in experiment [4] (0.005% in feed), in experiment [4] (0.01% in feed), in experiment [4] (0.02% in feed) and in experiment [4] (0.04% in feed) was 0/10 throughout.

As for `CCN(CC)C(=S)SCCC(=O)c1ccccc1` [compound 24, 2-Benzoylethyl diethyldithiocarbamate], the MIC in experiment [1] stood at 0.05 µg/mL (≈ 0.178 µM); in experiment [2], 0.2 µg/mL (≈ 0.711 µM); in experiment [3], 0.39 µg/mL (≈ 1.39 µM). The Attack rate arthritis in experiment [4] (0.005% in feed) was 4/10; in experiment [4] (0.01% in feed), 3/10; in experiment [4] (0.02% in feed) it was 2/10; in experiment [4] (0.04% in feed), 0/10. The Attack rate pneumonia in experiment [4] (0.005% in feed), in experiment [4] (0.01% in feed), in experiment [4] (0.02% in feed) and in experiment [4] (0.04% in feed) was 0/10 each time. Further, the “Recovery of mycoplasma joint” value is 4/10 in experiment [4] (0.005% in feed), 3/10 in experiment [4] (0.01% in feed), 2/10 in experiment [4] (0.02% in feed) and 0/10 in experiment [4] (0.04% in feed). Besides, the “Recovery of mycoplasma lung” value in experiment [4] (0.005% in feed), in experiment [4] (0.01% in feed), in experiment [4] (0.02% in feed) and in experiment [4] (0.04% in feed) was 0/10 throughout.

For `Oc1c(Cl)cc(CSC(=S)N2CCCCC2)cc1Cl` [compound 234, 4-Hydroxy-3,5-dichlorobenzyl 1-piperidinecarbodithioate], the MIC was 3.13 µg/mL (≈ 9.31 µM) in experiment [1], 3.13 µg/mL (≈ 9.31 µM) in experiment [2] and 1.56 µg/mL (≈ 4.64 µM) in experiment [3].

On to `CN(C)C(=S)SCc1cc(C(C)(C)C)c(O)c(C(C)(C)C)c1` [compound 211, 4-Hydroxy-3,5-di-t-butylbenzyl dimethyldithio carbamate], for which the MIC in experiment [1] amounted to 0.78 µg/mL (≈ 2.3 µM); in experiment [2], 0.78 µg/mL (≈ 2.3 µM); in experiment [3], 0.39 µg/mL (≈ 1.15 µM).

For the compound `O=C(CCSC(=S)N1CCCCC1)c1ccccc1` [compound 30, 2-Benzoylethyl 1-piperidinecarbodithioate], the MIC in experiment [1], in experiment [2] and in experiment [3] was 0.2 µg/mL (≈ 0.682 µM) each time.

For the compound `O=C1CCCCC1CSC(=S)N1CCCCC1` (centres unmarked) [Compound No. 9, 2-Oxocyclohexylmethyl 1-piperidinecarbodithioate], the figures for the MIC in experiment [1], in experiment [2] and in experiment [3] were 0.2 µg/mL (≈ 0.737 µM), 0.39 µg/mL (≈ 1.44 µM) and 0.2 µg/mL (≈ 0.737 µM), respectively.

On to `Cc1cc2c(c(O)c1CSC(=S)N1CCN(C)CC1)C1OCC34CCCC(C)(C)C3CCC(C)(O2)C14` (centres unmarked) [compound 273, 16-(4-Methyl-1-piperazinethiocarbonylthiomethyl)siccanin hydrochloride], for which, in experiment [1] (hydrochloride), the “Minimum Inhibitory Concentration, Mycoplasma gallisepticum” value was 0.78 µg/mL. Further, the “Minimum Inhibitory Concentration, Mycoplasma pulmonis” value in experiment [2] (hydrochloride) stood at 0.78 µg/mL. In experiment [3] (hydrochloride), the “Minimum Inhibitory Concentration, Mycoplasma hyorhinis” value amounted to 0.78 µg/mL.

In the case of `CC(=O)CCSC(=S)N(C)Cc1ccccc1` [compound 82, 2-Acetylethyl benzylmethyldithiocarbamate], the MIC in experiment [1], in experiment [2] and in experiment [3] was 0.2 µg/mL (≈ 0.748 µM) throughout.

In the case of `COc1cc(CSC(=S)N2CCCCC2)cc(OC)c1O` [compound 229, 4-Hydroxy-3,5-dimethoxybenzyl 1-piperidinecarbodithioate], the MIC in experiment [1], in experiment [2] and in experiment [3] was 0.39 µg/mL (≈ 1.19 µM) throughout.

`CN(C)C(=S)SCCC(=O)CCc1ccccc1` [compound 123, 2-Hydrocinnamoylethyl dimethyldithiocarbamate]: the MIC in experiment [1], in experiment [2] and in experiment [3] was 0.2 µg/mL (≈ 0.711 µM) throughout.

On to `Cc1cc(O)c(CSC(=S)N(C)C)cc1CSC(=S)N(C)C` [compound 247, 4-Hydroxy-5-dimethylthiocarbamoylthiomethyl-2-methylbenzyl dimethyldithiocarbamate], for which the MIC in experiment [1] is 0.78 µg/mL (≈ 2.08 µM); in experiment [2] it was 0.78 µg/mL (≈ 2.08 µM); in experiment [3], 0.39 µg/mL (≈ 1.04 µM).

Regarding `CCN(CC)C(=S)SCCC(=O)C=Cc1ccc(C)cc1` [compound 142, 2-(p-Methylcinnamoyl)ethyl diethyldithiocarbamate], the MIC in experiment [1], in experiment [2] and in experiment [3] was 0.2 µg/mL (≈ 0.622 µM) throughout.

Turning to `CN(C)C(=S)SCC1CCCCC1=O` (centres unmarked) [compound 5, 2-Oxocyclohexylmethyl dimethyldithiocarbamate], the results for the MIC in experiment [1], in experiment [2] and in experiment [3] were 0.05 µg/mL (≈ 0.216 µM), 0.1 µg/mL (≈ 0.432 µM) and 0.05 µg/mL (≈ 0.216 µM), respectively.

For `Cc1cc(CSC(=S)N2CCCCC2)cc(C)c1O` [compound 192, 4-Hydroxy-3,5-dimethylbenzyl 1-piperidinecarbodithioate], the MIC in experiment [1] came out at 0.39 µg/mL (≈ 1.32 µM); in experiment [2] it was 0.39 µg/mL (≈ 1.32 µM); in experiment [3], 0.1 µg/mL (≈ 0.338 µM).

For `Cc1cc(CSC(=S)N2CCCC2)cc(C)c1O` [compound 187, 4-Hydroxy-3,5-dimethylbenzyl 1-pyrrolidinecarbodithioate], the MIC in experiment [1], in experiment [2] and in experiment [3] was 0.78 µg/mL (≈ 2.77 µM) each time.

For the compound `Cc1cc(CSC(=S)N(C)C)cc(C)c1O` [compound 183, 4-Hydroxy-3,5-dimethylbenzyl dimethyldithiocarbamate], the MIC in experiment [1], in experiment [2] and in experiment [3] was 0.2 µg/mL (≈ 0.783 µM) throughout.

`Cc1cc(CSC(=S)N2CCCCC2)cc(C(C)(C)C)c1O` [compound 207, 4-Hydroxy-3-t-butyl-5-methylbenzyl 1-piperidinecarbodithioate]: the MIC in experiment [1], in experiment [2] and in experiment [3] was 0.1 µg/mL (≈ 0.296 µM) in each case.

For the compound `CN1CCN(C(=S)SCCC(=O)c2ccccc2)CC1.Cl` [compound 34, 2-Benzoylethyl 4-methyl-1-piperazinecarbodithioate hydrochloride], the MIC in experiment [1], in experiment [2] and in experiment [3] was 0.05 µg/mL throughout.

For `CC(=O)CCSC(=S)N1CCCCCC1` [compound 89, 2-Acetylethyl 1-hexamethyleneiminecarbodithioate], the figures for the MIC in experiment [1], in experiment [2] and in experiment [3] were 0.2 µg/mL (≈ 0.815 µM), 0.1 µg/mL (≈ 0.407 µM) and 0.1 µg/mL (≈ 0.407 µM), respectively.

On to `CC(=O)CCSC(=S)N1CCOCC1` [compound 91, 2-Acetylethyl 4-morpholinecarbodithioate], for which the MIC in experiment [1] came out at 0.2 µg/mL (≈ 0.857 µM); in experiment [2], 0.2 µg/mL (≈ 0.857 µM); in experiment [3], 0.025 µg/mL (≈ 0.107 µM).

`CC=Cc1cc(CSC(=S)N(CC)CC)c(O)c(OC)c1` [compound 246, 2-Hydroxy-3-methoxy-5-propenylbenzyl diethyldithiocarbamate]: the MIC in experiment [1] came out at 0.39 µg/mL (≈ 1.2 µM); in experiment [2] it was 0.2 µg/mL (≈ 0.614 µM); in experiment [3] it was 0.39 µg/mL (≈ 1.2 µM).

Take `CC(=O)CCSC(=S)N(C)C` [compound 78, 2-Acetylethyl dimethyldithiocarbamate]: the MIC in experiment [1] stood at 0.05 µg/mL (≈ 0.261 µM); in experiment [2], 0.05 µg/mL (≈ 0.261 µM); in experiment [3], 0.025 µg/mL (≈ 0.131 µM).

Turning to `CCCCN(C)C(=S)SCCC(C)=O` [compound 80, 2-Acethylethyl butylmethyldithiocarbamate], the MIC in experiment [1], in experiment [2] and in experiment [3] was 0.1 µg/mL (≈ 0.428 µM) in each case.

For the compound `O=C(CCSC(=S)N1CCCCCC1)c1ccccc1` [compound 31, 2-Benzoylethyl 1-hexamethyleneiminecarbodithioate], the MIC in experiment [1], in experiment [2] and in experiment [3] was 0.2 µg/mL (≈ 0.65 µM) throughout.

`CC(C)(C)c1cc(CSC(=S)N2CCCCC2)cc(C(C)(C)C)c1O` [compound 218, 4-Hydroxy-3,5-di-t-butylbenzyl 1-piperidinecarbodithioate]: the MIC in experiment [1] was determined as 0.78 µg/mL (≈ 2.05 µM); in experiment [2], 0.39 µg/mL (≈ 1.03 µM); in experiment [3] it was 0.39 µg/mL (≈ 1.03 µM).

On to `CCC(C)c1cc(CSC(=S)N(C)C)cc(CN(C)C)c1O.Cl` (centres unmarked) [compound 240, 4-Hydroxy-3-dimethylaminomethyl-5-sec-butylbenzyl dimethyldithiocarbamate hydrochloride], for which the figures for the MIC in experiment [1], in experiment [2] and in experiment [3] were 0.39 µg/mL, 0.39 µg/mL and 0.2 µg/mL, respectively.
